Test results published in patent publication US8993606B2, “Oral formulations for treating metal overload” (FerroKin BioSciences, Inc., priority 2011, dated 2015).
Where two headings read alike, the source gives them in different places.

Assays:
[1] = Example 8: single-dose study in healthy human subjects 3-16 mg/kg (PK); format: in vivo; conditions: for half-life / AUC(0-t) / AUC(0-inf) / Cmax / Tmax: male, human, plasma; for AUC(0-t) / Cmax / Tmax: mean of 3 subjects
Text: (§1) Example 8 was a double-blind, placebo-controlled single dose-escalating study in healthy subjects. Men between the ages of 18-45 years qualified to participate if they were able to voluntarily give consent and had no clinically significant abnormal findings at the screening evaluation. Specifically, subjects had blood pressure in the normal range, ECG and clinical laboratory values within normal limits, tested negative for drugs of abuse and had not recently donated blood. Subjects were also HIV, Hepatitis B, and Hepatitis C negative and agreed to use an approved method of contraception during the study.
(§2) The objectives of this study were to assess the safety, tolerability, and pharmacokinetics of ascending single doses of Compound 1 compared to placebo. Additionally, dose proportionality and pharmacodynamics of Compound 1 were assessed. Four doses of Compound 1 (3, 6, 10, and 16 mg/kg), in capsule form, were evaluated in this study. Following screening, subjects in a given cohort were randomly assigned to receive either Compound 1 or placebo. In the first cohort, 3 subjects received […] and 2 received placebo; in each of the subsequent remaining 3 cohorts, 3 subjects received the next higher dose of Compound 1 and 1 received placebo. Subjects were dosed and then confined to the clinical research unit for 24 hours to conduct safety and pharmacokinetic assessments. Subjects were released from the clinic on Day 2 and returned daily for follow-up visits for 5 days post-dosing.
All 12 subjects who received a dose of Compound 1 were included in the analysis of pharmacokinetic parameters. All 17 subjects enrolled in the study were included in the analysis of pharmacodynamics.
Blood samples for determination of total (free and iron bound complex) plasma Compound 1 concentrations were collected on Day 1 at pre-dose (within 60 minutes prior to dose administration) and then at 0.25, 0.5, 0.75, 1, 1.5, 2, 2.5, 3, 3.5, 4, 8, 12 hours post-dose; on Day 2 at 24 and 36 hours post-dose; on Day 3 at 48 hours post-dose, on Day 4 at 72 hours post-dose; and on Day 5 at 96 hours post-dose.
Total urine collection for pharmacokinetic and pharmacodynamic assessment was performed at pre-dose and then for intervals 0-4, 4-8, 8-12, 12-24 hours post-dose. Collection of total urine for 24 hours post-dose for pharmacokinetic analysis was complete for all subjects who received a dose of Compound 1. It was noted, however, that Subject R105 (placebo) voided into the toilet once (at 3 minutes post-dose) during the 0-4 hour post-dose urine collection interval.

healthy subjects = experiment: Safety: single-dose study in healthy subjects (3, 6, 10, 16 mg/kg); format: in vivo; conditions: for Arthralgia / Colitis / Flatulence / Gastroenteritis / Headache / Somnolence / Total Number (%) of Subjects Experiencing Adverse Events / Total Number of Subjects Experiencing NO Adverse Events / Upper respiratory tract infection: 3 subjects
Text: as §1, §2
All 17 enrolled subjects completed the study: Twelve received a single dose of Compound 1 (3, 6, 10, and 16 mg/kg) and 5 received placebo. […] Treatment-emergent adverse events (TEAEs) were reported for 5 of the 12 subjects receiving Compound 1 (Table 28 and 29). A total of 9 AEs were reported; 8 treatment-emergent, and 1 pre-dose, all in subjects receiving Compound 1. […] Additionally, there were no clear differences in safety as evaluated by clinical laboratory assessments, vital sign measurements, and ECG parameters between subjects who had received Compound 1 compared with those who received placebo, and no apparent dose-related trends in these safety assessments in subjects who received Compound 1.

[2] = single oral dose 10 mg/kg, mean
[3] = single oral dose 16 mg/kg, mean

## COCCOCCOCCOc1cccc(C2=N[C@@](C)(C(=O)O)CS2)c1O [Compound 1, (S)-4,5-Dihydro-2-[2-hydroxy-3-(3,6,9-trioxadecyloxy)phenyl]-4-methyl-4-thiazolecarboxylate magnesium hydroxide]
[1]; 3-16 mg/kg
  dose dependence of mean Cmax and AUC: linear across the dose range
[1]; across all 4 dose levels
  total fraction of administered drug excreted in urine over 24 hour, range: 19-83%
[1]; all 4 dose levels, standard deviation 18%
  total fraction of administered drug excreted in urine over 24 hour, average: 59%
[1]; oral, 11 of 12 subjects, 3-16 mg/kg, read-out: median t1/2 (converted)
  half-life: 7.32 h
[1]; oral, 11 of 12 subjects, 3-16 mg/kg, read-out: t1/2, range
  half-life: 3.77 to 35.2 h
[1]; oral, 11 of 12 subjects, 3-16 mg/kg, standard deviation 10.1, read-out: mean t1/2 (converted)
  half-life: 12.8 h
[1]; po, 3 mg/kg, single oral dose 3 mg/kg, read-out: AUC0-24
  AUC(0-t): 12100 ng·h/mL
[1]; po, 3 mg/kg, single oral dose 3 mg/kg, read-out: AUC0-t
  AUC(0-t): 12100 ng·h/mL
[1]; po, 3 mg/kg, single oral dose 3 mg/kg, mean, read-out: t1/2 (converted)
  half-life: 4.4 h
[1]; po, 6 mg/kg, single oral dose 6 mg/kg, read-out: AUC0-24
  AUC(0-t): 24700 ng·h/mL
[1]; po, 6 mg/kg, single oral dose 6 mg/kg, read-out: AUC0-t
  AUC(0-t): 25300 ng·h/mL
[1]; po, 6 mg/kg, single oral dose 6 mg/kg, mean, read-out: t1/2 (converted)
  half-life: 15.4 h
[1]; po, 10 mg/kg, single oral dose 10 mg/kg, read-out: AUC0-24
  AUC(0-t): 42700 ng·h/mL
[1]; po, 10 mg/kg, single oral dose 10 mg/kg, read-out: AUC0-t
  AUC(0-t): 43400 ng·h/mL
[1]; po, 10 mg/kg, single oral dose 10 mg/kg, mean, read-out: t1/2 (converted)
  half-life: 16.1 h
[1]; po, 16 mg/kg, single oral dose 16 mg/kg, read-out: AUC0-24
  AUC(0-t): 74600 ng·h/mL
[1]; po, 16 mg/kg, single oral dose 16 mg/kg, read-out: AUC0-t
  AUC(0-t): 75400 ng·h/mL
[1]; po, 16 mg/kg, single oral dose 16 mg/kg, mean, read-out: t1/2 (converted)
  half-life: 16.1 h
[1]; single oral dose 3 mg/kg, mean
  AUC(0-inf): 12200 ng·h/mL
  kel: 0.1595 h⁻¹
[1]; single oral dose 3 mg/kg
  Cmax: 5410 ng/mL
  Tmax: 1.33 h
[1]; single oral dose 6 mg/kg, mean
  AUC(0-inf): 26600 ng·h/mL
  kel: 0.0469 h⁻¹
[1]; single oral dose 6 mg/kg
  Cmax: 12200 ng/mL
  Tmax: 0.92 h
[1]; [2]
  AUC(0-inf): 43600 ng·h/mL
  kel: 0.0562 h⁻¹
[1]; single oral dose 10 mg/kg
  Cmax: 16600 ng/mL
  Tmax: 1.17 h
[1]; [3]
  AUC(0-inf): 75600 ng·h/mL
  kel: 0.0779 h⁻¹
[1]; single oral dose 16 mg/kg
  Cmax: 34800 ng/mL
  Tmax: 1 h
Healthy subjects; 3 mg/kg
  Arthralgia: 0 Number (%) Subjects
  Colitis: 0 Number (%) Subjects
  Flatulence: 0 Number (%) Subjects
  Gastroenteritis: 1 (33%) Number (%) Subjects
  Headache: 0 Number (%) Subjects
  Somnolence: 1 (33%) Number (%) Subjects
  Total Number (%) of Subjects Experiencing Adverse Events: 1 (33%) Number (%)
  Total Number of Subjects Experiencing NO Adverse Events: 2 (67%)
  Upper respiratory tract infection: 0 Number (%) Subjects
Healthy subjects; 6 mg/kg
  Arthralgia: 1 (33%) Number (%) Subjects
  Colitis: 0 Number (%) Subjects
  Flatulence: 0 Number (%) Subjects
  Gastroenteritis: 0 Number (%) Subjects
  Headache: 0 Number (%) Subjects
  Somnolence: 0 Number (%) Subjects
  Total Number (%) of Subjects Experiencing Adverse Events: 1 (33%) Number (%)
  Total Number of Subjects Experiencing NO Adverse Events: 2 (67%)
  Upper respiratory tract infection: 1 (33%) Number (%) Subjects
Healthy subjects; 10 mg/kg
  Colitis: 0 Number (%) Subjects
  Flatulence: 0 Number (%) Subjects
  Gastroenteritis: 0 Number (%) Subjects
  Headache: 0 Number (%) Subjects
  Somnolence: 0 Number (%) Subjects
  Total Number (%) of Subjects Experiencing Adverse Events: 0 Number (%)
  Total Number of Subjects Experiencing NO Adverse Events: 3 (100%)
  Upper respiratory tract infection: 0 Number (%) Subjects
Healthy subjects; 16 mg/kg
  Arthralgia: 0 Number (%) Subjects
  Colitis: 1 (33%) Number (%) Subjects
  Flatulence: 1 (33%) Number (%) Subjects
  Headache: 1 (33%) Number (%) Subjects
  Somnolence: 0 Number (%) Subjects
  Total Number (%) of Subjects Experiencing Adverse Events: 3 (100%) Number (%)
  Total Number of Subjects Experiencing NO Adverse Events: 0
  Upper respiratory tract infection: 0 Number (%) Subjects
Healthy subjects; single dose 3, 6, 10, 16 mg/kg
  tolerability: well tolerated
Healthy subjects; single dose 3-16 mg/kg
  deaths, SAEs, withdrawals due to AEs: no deaths, no serious adverse events (SAEs), and no withdrawals due to AEs
  subjects with treatment-emergent adverse events (TEAEs): 5 of the 12
  total AEs reported: 9 AEs
  treatment-emergent AEs: 8
